Data: patent US20070154449A1, “TIGHT JUNCTION MODULATING PEPTIDES FOR ENHANCED MUCOSAL DELIVERY OF THERAPEUTIC COMPOUNDS” (Nastech Pharmaceutical Company Inc., priority 2005, published 2007)

Assays:
Assay type in all cases: cell-based
[1] = system: human-derived tracheal/bronchial epithelial cells (EpiAirway™ Tissue model system); assay: Cytotoxicity (LDH assay), EpiAirway tissue model; settings: 1 h incubation, % of 1% Triton X-100 control
Procedure: The amount of cell death was assayed by measuring the release of lactate dehydrogenase (LDH) from the cells into the apical medium using a CytoTox 96 Cytotoxicity Assay Kit (Promega Corp., Madison, Wis.). One percent Octylphenolpoly (ethyleneglycolether)×(Triton X-100™) diluted in phosphate buffered saline (PBS) causes 100% lysis in cultured cells and served herein as a positive control for the LDH assay. Following the one hour incubation period with a test formulation (refer to Table 4 in Example 2 for details of test formulations), the total liquid volume of each insert was brought to a final volume of 200 μl with culture medium. The apical medium was then mixed by pipetting four times with a multichannel pipette set to a 100 μl volume. After mixing, a 100 μl sample from the apical side of each insert was transferred to a new 96-well plate. The apical media samples were sealed with a plate sealer and stored at room temperature for same day analysis or stored overnight at 4° C. for analysis the next day. To measure LDH levels, 5 μl of the 100 μl apical media sample was diluted in 45 μl DPBS in a new 96-well plate. Fresh, cell-free culture medium will be used as a blank. Fifty microliters of substrate solution was added to each well and incubated for 30 minutes at room temperature away from direct light. Following the 30 minute incubation, 50 μl of stop solution was added to each well. Optical density (OD) was measured at 490 nm with a uQuant absorbance plate reader from Biotek Instruments. The measurement of LDH release into the apical media indicates relative cytotoxicity of the samples. Percent cytotoxicity for each test formulation was calculated by subtracting the measured absorbance of the PBS control (basal level of LDH release) from the measured absorbance of the individual test formulation and then dividing that value by the measured absorbance for the 1% Triton X-100™ positive control, multiplied by 100.
The formula used to calculate percent cytotoxicity is as follows: [formula] Osmolality
(§1) Of the total 300 μl volume for each test formulation, only a 20 μl sample was applied to the human-derived tracheal/bronchial epithelial cells (EpiAirway™ Tissue model system) in order to assess the effect each test formulation had on TER, LDH and sample permeation.

[2] = system: human-derived tracheal/bronchial epithelial cells (EpiAirway™ Tissue model system); assay: FITC-Dextran (FD3) permeation assay, EpiAirway tissue model; settings: for % FD3 Permeation: 1 h at 37° C.
Procedure: A FITC labeled dextran with a molecular weight 3000 (FD3) was used to assess the efficacy of individual TJMP on epithelial cell monolayer permeation. The tissue insert plates were transferred to a 96-well receiver plate containing 200 μl of DPBS++ as basal media. The apical surface of each tissue culture insert was incubated with a 20 μl sample of a single test formulation (refer to Table 4 in Example 2 for details of test formulations) for one hour at 37° C. in the dark on a shaker (˜100 rpm). Following the 1 hour incubation period, underlying basal media samples were taken from each tissue culture insert and temporarily stored in the dark at room temperature until FD3 levels were quantified by fluorescence spectroscopy. For FD3 measurements, a 150 μl of basal media sample was transferred to a black, clear bottom 96-well plate. Fluorescence emission at 528/20 following excitation at 485/20 were measured using a FLx800 fluorescence plate reader from Biotek Instruments.
Permeation was calculated as: [formula] [formula] Formula terms for permeation defined: […]
as §1

[3] = system: human-derived tracheal/bronchial epithelial cells (EpiAirway™ Tissue model system); assay: Transepithelial electrical resistance (TER), EpiAirway tissue model; settings: pH 7, 20 μl applied
Procedure: EpiAirway™ culture membranes were received the day before the experiments started. They are shipped in phenol red-free and hydrocortisone-free Dulbecco's Modified Eagle's Medium (DMEM). The cells are ciliated and psudostratefied, grown to confluency on Millipore Multiscreen Caco-2 96-well assay system comprised of a polycarbonate filter system. Upon receipt, the insert system will be stored unopened at 4° C. and/or cultured in 250 μl basal media per well (phenol red-free and hydrocortisone-free Dulbecco's Modified Eagle's Medium (DMEM)) at 37° C./5% CO2 for 24 hours before use.
TER measurements were taken using the REMS Autosampler (World Precision Instruments, Sarasota, Fla.) with the electrode leads. The electrodes and a tissue culture blank insert will be equilibrated for at least 20 minutes in MatTek Air-100™ medium with the power off prior to checking calibration. The background resistance of the insert system has been established by multiple measurements of a blank insert plate and the same value was used for each test on the platform. Time zero TER (TER0) was measured before incubation of the inserts with the test formulation. The top electrode will be as adjusted so that it is close to, but not making contact with, the top surface of the insert membrane. Background resistance of the blank insert should be about 5-20 ohms. For each TER determination, 100 μl of MatTek Air-100™ medium was added to the insert and 250 μl in the basal well followed by placement in the Endohm chamber. All TER values are reported as a function of the surface area of the tissue. Resistance was expressed as both Ohms*cm^2 and percent original TER value.
TER values were calculated as: [formula] [formula] Formula terms for TER calculation defined: […]
A decrease in TER value relative to the control value indicates a decrease in cell membrane resistance and an increase in mucosal epithelial cell permeability.
as §1

Sequence: CNGRCGGKKKLKLLLKLL [PN679]
- LDH ([1]; 25 μM peptide): 1%
- LDH ([1]; 100 μM peptide): 23%
- LDH ([1]; 250 μM peptide): 38%
- LDH ([1]; 500 μM peptide): 50%
- LDH ([1]; 1000 μM peptide): 51%
- % FD3 Permeation ([2]; 25 μM peptide): 0%
- % FD3 Permeation ([2]; 100 μM peptide): 7%
- % FD3 Permeation ([2]; 250 μM peptide): 8%
- % FD3 Permeation ([2]; 500 μM peptide): 10%
- % FD3 Permeation ([2]; 1000 μM peptide): 10%
- optimal concentration ([2]; based on observed TER reduction, sample permeation and cytotoxicity (LDH release)): 100 µM
- % T0 TER ([3]; 25 μM peptide): 70%
- % T0 TER ([3]; 100 μM peptide): 7%
- % T0 TER ([3]; 250 μM peptide): 2%
- % T0 TER ([3]; 500 μM peptide): −2%
- % T0 TER ([3]; 1000 μM peptide): −2%
